Results published in patent US10765680B2, “Combination of a MCL-1 inhibitor and a taxane compound, uses and pharmaceutical compositions thereof” (priority 2017, dated 2020).
Blank lines part the entries; values can stand above or below the molecule they belong to.

Assays:
SK-BR-3 cells = experiment: SK-BR-3 viability (Cell Titer Glo, propidium iodide), Bliss synergy; type: cell-based; conditions: QVD-OPh 10 μM, propidium iodide staining, 72 hours
[1] = tested on: MDA-MB-453 breast cancer cell line; experiment: 3 days CellTiterGlo viability, checkerboard combination, MDA-MB-453; type: cell-based; conditions: single agent
Method: (§1) In addition, all media contained penicillin (100 IU/ml), streptomycin (100 μg/ml) and L-glutamine (2 mM).
(§2) Cell lines were cultured at 37° C. in a humidified atmosphere containing 5% CO2 and expanded in T-150 flasks. In all cases cells were thawed from frozen stocks, expanded through ≥1 passage using appropriate dilutions, counted and assessed for viability using a CASY cell counter prior to plating 150 μl/well at the densities indicated in Table 2 into 96-well plates.
(§3) Stock solutions of compounds were prepared at a concentration of 5 mM in DMSO and stored at −20° C.
(§4) In order to analyze the activity of the compounds in single agent or in combination, cells were seeded and treated with seven or eight 3.16-fold serial dilutions of each compound dispensed, either individually or in all possible permutations in a checkerboard fashion, directly into the cell assay plates as indicated in FIGS. 5 and 6. Effects of the single agents as well as their checkerboard combinations on cell viability were assessed after 3 days of incubation at 37° C./5% CO2 by quantification of cellular ATP levels using CellTiterGlo at 75 μL reagent/well. At least two independent experiments, each one performed in duplicates, were performed. Luminescence was quantified on a multipurpose plate reader.
(§5) Single agent IC50s were calculated using standard four-parametric curve fitting. Potential synergistic interactions between compound combinations were assessed using the Excess Inhibition 2D matrix according to the Loewe additivity model and are reported as Synergy Score (Lehar et al. 2009). All calculations were performed using Clalice™ Bioinformatics Software available in Horizon website.

[2] = tested on: SK-BR-3 breast cancer cell line; experiment: 72 hours CellTiter-Glo proliferation assay, SK-BR-3; type: cell-based; conditions: Homo sapiens, single agent, read-out: Abs IC50
Method: (§6) Compounds were dissolved in 100% DMSO (Sigma, Catalog # D2438-50 ML) at a stock concentration of 10 mM and stored at −20° C. until use. Compounds were arrayed in 2 ml deep 96-well plates (Greiner bio-one, catalog number 780271) serially diluted 3-fold. Compound 1 was used over a concentration range of 0.0-10.0 μM. Paclitaxel was used over a concentration range of 0.0-1.0 μM in breast cancer cells and 0.0-2.0 μM range in lung cancer cells.
(§7) All cell lines were purchased from the American Type Culture Collection and cultured according to vendor recommendations. […] All cell lines were determined to be free of mycoplasma contamination by a PCR detection assay performed at Idexx Radil (Columbia, Mo., USA) and authenticated by SNP analysis. […] Cells were expanded to T-75 flasks and assessed for viability using a Beckman-Coulter ViCell counter prior to plating. […]
(§8) Cell proliferation was measured in 72 hours CellTiter-Glo™ (CTG) assays and all results shown are the result of at least triplicate measurements. […] After 72 hours of compound treatment the effects of compounds on cell proliferation was determined using the CellTiter-Glo™ Luminescent Cell Viability Assay (Promega, Catalog # G7573). This is a homogeneous method to determine the number of viable cells in culture based on quantitation of the ATP present, which signals the presence of metabolically active cells. […]

[3] = tested on: HCC1937 breast cancer cell line; experiment: 72 hours CellTiter-Glo proliferation assay, HCC1937; type: cell-based; conditions: Homo sapiens, single agent, read-out: Abs IC50
Method: as §6, §7, §8

[4] = tested on: HCC38 breast cancer cell line; experiment: 72 hours CellTiter-Glo proliferation assay, HCC38; type: cell-based; conditions: Homo sapiens, single agent, read-out: Abs IC50
Method: as §6, §7, §8

MDA-MB-231 xenografts = experiment: MDA-MB-231 breast xenograft model, antitumor efficacy; type: in vivo, female nude rats; conditions: paclitaxel 7.5 mg/kg iv QW
[5] = tested on: MDA-MB-231 breast cancer cell line; experiment: 72 hours CellTiter-Glo proliferation assay, MDA-MB-231; type: cell-based; conditions: Homo sapiens, single agent, read-out: Abs IC50
Method: as §6, §7, §8

[6] = tested on: MDA-MB-436 breast cancer cell line; experiment: 72 hours CellTiter-Glo proliferation assay, MDA-MB-436; type: cell-based; conditions: Homo sapiens, single agent, read-out: Abs IC50
Method: as §6, §7, §8

[7] = tested on: 2 breast cancer cell lines (MDA-MB-453 and MDA-MB-468) and one lung cancer cell line (H522); experiment: 3 days CellTiterGlo viability, summary of the three cell lines; type: cell-based; conditions: for cell lines tested whose growth was inhibited by the single agent: three cell lines tested
Method: as §1, §2, §3, §4, §5

[8] = tested on: BT-20 breast cancer cell line; experiment: 72 hours CellTiter-Glo proliferation assay, BT-20; type: cell-based; conditions: Homo sapiens, single agent, read-out: Abs IC50
Method: as §6, §7, §8

[9] = tested on: NCI-H23 lung cancer cell line; experiment: 72 hours CellTiter-Glo proliferation assay, NCI-H23; type: cell-based; conditions: Homo sapiens, single agent, read-out: Abs IC50
Method: as §6, §7, §8

[10] = tested on: MCF7 breast cancer cell line; experiment: 72 hours CellTiter-Glo proliferation assay, MCF7; type: cell-based; conditions: Homo sapiens, single agent, read-out: Abs IC50
Method: as §6, §7, §8

[11] = tested on: MDA-MB-453 breast cancer cell line; experiment: 72 hours CellTiter-Glo proliferation assay, MDA-MB-453; type: cell-based; conditions: Homo sapiens, single agent, read-out: Abs IC50
Method: as §6, §7, §8

[12] = tested on: MDA-MB-468 breast cancer cell line; experiment: 72 hours CellTiter-Glo proliferation assay, MDA-MB-468; type: cell-based; conditions: Homo sapiens, single agent, read-out: Abs IC50
Method: as §6, §7, §8

[13] = tested on: HCC1954 breast cancer cell line; experiment: 72 hours CellTiter-Glo proliferation assay, HCC1954; type: cell-based; conditions: Homo sapiens, single agent, read-out: Abs IC50
Method: as §6, §7, §8

[14] = tested on: HCC1500 breast cancer cell line; experiment: 72 hours CellTiter-Glo proliferation assay, HCC1500; type: cell-based; conditions: single agent, read-out: Abs IC50
Method: as §6, §7, §8

[15] = tested on: BT-549 breast cancer cell line; experiment: 72 hours CellTiter-Glo proliferation assay, BT-549; type: cell-based; conditions: Homo sapiens, single agent, read-out: Abs IC50
Method: as §6, §7, §8

[16] = tested on: Cal-148 breast cancer cell line; experiment: 72 hours CellTiter-Glo proliferation assay, Cal-148; type: cell-based; conditions: Homo sapiens, single agent, read-out: Abs IC50
Method: as §6, §7, §8

[17] = tested on: HCC1395 breast cancer cell line; experiment: 72 hours CellTiter-Glo proliferation assay, HCC1395; type: cell-based; conditions: Homo sapiens, single agent, read-out: Abs IC50
Method: as §6, §7, §8

[18] = tested on: MDA-MB-157 breast cancer cell line; experiment: 72 hours CellTiter-Glo proliferation assay, MDA-MB-157; type: cell-based; conditions: Homo sapiens, single agent, read-out: Abs IC50
Method: as §6, §7, §8

[19] = tested on: HCC1143 breast cancer cell line; experiment: 72 hours CellTiter-Glo proliferation assay, HCC1143; type: cell-based; conditions: Homo sapiens, single agent, read-out: Abs IC50
Method: as §6, §7, §8

[20] = tested on: MDA-MB-468 breast cancer cell line; experiment: 3 days CellTiterGlo viability, checkerboard combination, MDA-MB-468; type: cell-based; conditions: single agent
Method: as §1, §2, §3, §4, §5

[21] = tested on: A549 lung cancer cell line; experiment: 72 hours CellTiter-Glo proliferation assay, A549; type: cell-based; conditions: Homo sapiens, single agent, read-out: Abs IC50
Method: as §6, §7, §8

[22] = tested on: H522 lung cancer cell line; experiment: 3 days CellTiterGlo viability, checkerboard combination, H522; type: cell-based; conditions: single agent
Method: as §1, §2, §3, §4, §5

[23] = tested on: NCI-H522 lung cancer cell line; experiment: 72 hours CellTiter-Glo proliferation assay, NCI-H522; type: cell-based; conditions: Homo sapiens, single agent, read-out: Abs IC50
Method: as §6, §7, §8

[24] = tested on: BT-474 breast cancer cell line; experiment: 72 hours CellTiter-Glo proliferation assay, BT-474; type: cell-based; conditions: Homo sapiens, single agent, read-out: Abs IC50
Method: as §6, §7, §8

[25] = tested on: Hs 578T breast cancer cell line; experiment: 72 hours CellTiter-Glo proliferation assay, Hs 578T; type: cell-based; conditions: Homo sapiens, single agent, read-out: Abs IC50
Method: as §6, §7, §8

[26] = tested on: HCC70 breast cancer cell line; experiment: 72 hours CellTiter-Glo proliferation assay, HCC70; type: cell-based; conditions: Homo sapiens, single agent, read-out: Abs IC50
Method: as §6, §7, §8

[27] = tested on: TNBC PDX models 110T, 838T and PDX OD-BRE-0589; conditions: Compound 2 25 mg/kg i.v. weekly for six weeks; three TNBC PDX models

Structure (SMILES): CC(C)[C@H](NC(=O)c1ccc2ccccc2n1)C(=O)N[C@@H](CC(=O)O)C(=O)COc1c(F)cccc1F [QVD-OPH, QVD-OPh hydrate]
effect on cell death induced by docetaxel and Compound 2 (SK-BR-3 cells): efficiently blocked cell death

IC50 ([1]; Homo sapiens, 72 h): > 1000 nM
IC50 [2]: 2.66 nM
IC50 [3]: 11.6 nM
IC50 [4]: 4.33 nM
IC50 [5]: 17.5 nM
IC50 [6]: 14.7 nM
IC50 ([7]; single agent, 2/3 lines tested, read-out: IC50 in the cell lines inhibited): < 1 nM
IC50 [8]: 5.97 nM
IC50 [9]: 0.22 nM
IC50 [10]: 10.4 nM
IC50 [11]: 4.2 nM
IC50 [12]: 3.07 nM
IC50 [13]: 6.5 nM
IC50 [14]: > 1000 nM
IC50 [15]: 8.82 nM
IC50 [16]: 4.25 nM
IC50 [17]: 8.03 nM
IC50 [18]: > 1000 nM
IC50 [19]: 9.43 nM
IC50 ([20]; Homo sapiens, 72 h): 0.9 nM
IC50 [21]: 0.163 nM
IC50 ([22]; Homo sapiens, NCI-H522, 72 h, H522, 3 days): 0.2 nM
IC50 [23]: 0.48 nM
IC50 [24]: 1.7 nM
IC50 [25]: 0.363 nM
Structure (SMILES): CC(=O)O[C@H]1C(=O)[C@@]2(C)[C@H]([C@H](OC(=O)c3ccccc3)[C@]3(O)C[C@H](OC(=O)[C@H](O)[C@@H](NC(=O)c4ccccc4)c4ccccc4)C(C)=C1C3(C)C)[C@]1(OC(C)=O)CO[C@@H]1C[C@@H]2O [Paclitaxel, paclitaxel, reference compound]
Mean of Max Inh [1]: 37.0%
T/C % (MDA-MB-231 xenografts): 34%
cell lines tested whose growth was inhibited by the single agent [7]: 2/3
Mean of Max Inh [20]: 75.0%
Mean of Max Inh ([22]; H522, 3 days): 61.0%
IC50 [26]: 8.39 nM

IC50 [1]: > 2000 nM
IC50 [20]: > 2000 nM
IC50 ([22]; H522 cell line): 140 nM
Structure (SMILES): Cc1c(-c2c(-c3ccc(F)o3)sc3ncnc(O[C@H](Cc4ccccc4OCc4ccnn4CC(F)(F)F)C(=O)O)c23)ccc(OCCN2CCN(C)CC2)c1Cl [Compound 2, (2R)-2-{[(5Sa)-5-{3-chloro-2-methyl-4-[2-(4-methylpiperazin-1-yl)ethoxy]phenyl}-6-(5-fluorofuran-2-yl)thieno[2,3-d]pyrimidin-4-yl]oxy}-3-(2-{[1-(2,2,2-trifluoroethyl)-1H-pyrazol-5-yl]methoxy}phenyl)propanoic acid]
Mean of Max Inh [1]: 21.0%
cell lines tested whose growth was inhibited by the single agent [7]: 1/3
inhibition of tumor growth, single agent [27]: insufficient in inhibiting tumor growth
Mean of Max Inh [20]: 24.0%
Mean of Max Inh ([22]; H522, 3 days): 92.0%
